Among the data in patent US20260199350A1, “FLAVONES, QUINOLINONES, QUINAZOLINONES, AND AURONES, AND USES IN CK2-MEDIATED DISEASES” (Salk Institute for Biological Studies, priority 2022, published 2026) are solubility and IC50 values, retold here.

A word on the solubility: it is the concentration that dissolves in the medium under given conditions.

pIC50: −log10 of the molar value. Converted amounts (≈) assume the structure as drawn. Where two headings read alike, the source gives them in different places.

Series [1] can be described thus: Aqueous solubility. The class given is physicochemical. The conditions noted are these: read-out: Aqueous Solubility.
Series [2] addresses T1, CK2A1 (Homo sapiens, UniProt P68400).
T1 construct: purchased Eurofins
In words: Radiometric kinase assay (Eurofins), CK2A1. Format: biochemical. The conditions noted are these: read-out: CK2A1 RAD IC50. The source says: FIGS. 4A-4F characterize flavones for in vitro and in-cell CK2 inhibition. […] Representative of two independent experiments. […] Nonlinear fit was used to calculate IC50. […] Nonlinear fit was used to calculate IC50. […] Nonlinear fit was used to calculate IC50. […] Normalized to DMSO, data are representative of three independent experiments.
(§1) • ^1Radiometric kinase assay from Eurofins. Performed in astrocytes with a Promega Lumit IL-6 kit.

Series [3] relates to IL-6 secretion. In words: IL-6 secretion assay in astrocytes (Promega Lumit IL-6 kit). Format: cell-based, human. The conditions noted are these: Homo sapiens, Astrocyte, read-out: IL6-Inhib. Here is the method:
IL-6 secretion assay. HCAs were plated at 20,000 cells per well in white clear bottom 96-well plates. Two to three days later, media was removed and replaced with media containing 10 ng/mL IL1B and compound dilution series. Five hours later, plates were processed using the Lumit IL-6 Assay Kit (Promega W6030) according to the manufacturer's instructions.
• ^1Radiometric kinase assay from Eurofins. Performed in astrocytes with a Promega Lumit IL-6 kit. A series of halogenated flavones was generated and assayed (Table 3).

In series [4] the target is T2, CK2A2 (Homo sapiens, UniProt P19784).
T2 construct: purchased Eurofins
T2 sequence (P19784 whole entry): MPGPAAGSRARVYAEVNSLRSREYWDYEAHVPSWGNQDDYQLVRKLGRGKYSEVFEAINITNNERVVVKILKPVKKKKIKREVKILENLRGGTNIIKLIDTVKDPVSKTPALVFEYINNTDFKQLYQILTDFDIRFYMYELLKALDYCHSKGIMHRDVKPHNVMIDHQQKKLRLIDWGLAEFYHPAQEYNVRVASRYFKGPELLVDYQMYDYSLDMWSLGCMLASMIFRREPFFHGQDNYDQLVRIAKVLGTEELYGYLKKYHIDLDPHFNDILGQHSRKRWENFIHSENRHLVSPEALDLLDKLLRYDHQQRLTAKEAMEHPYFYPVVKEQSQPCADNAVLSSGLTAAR
In words: Radiometric kinase assay (Eurofins), CK2A2. The class given is biochemical. The note with it: read-out: CK2A2 RAD IC50.
Source text: as §1

Setting [5] is: aqueous medium (not further specified), Table 8.

T1 sequence (P68400 whole entry): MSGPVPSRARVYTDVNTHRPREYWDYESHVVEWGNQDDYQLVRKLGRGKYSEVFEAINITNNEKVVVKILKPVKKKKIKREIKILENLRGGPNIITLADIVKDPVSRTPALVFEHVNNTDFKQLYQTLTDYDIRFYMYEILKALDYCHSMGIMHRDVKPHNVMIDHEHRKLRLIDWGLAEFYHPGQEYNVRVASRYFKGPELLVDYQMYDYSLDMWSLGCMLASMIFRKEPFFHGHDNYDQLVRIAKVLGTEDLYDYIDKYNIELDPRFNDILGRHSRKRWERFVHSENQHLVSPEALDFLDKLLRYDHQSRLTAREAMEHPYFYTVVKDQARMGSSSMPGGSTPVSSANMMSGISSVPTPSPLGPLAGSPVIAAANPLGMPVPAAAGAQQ

`O=c1cc(-c2ccc(O)c(Cl)n2)oc2c(Br)cc(Br)cc12` [JKT.801A]: in series [1] (Table 4), the solubility is 155 µM (≈ 66.8 µg/mL). The pIC50 in series [2] (Table 4) was 7.62; in series [3] (Table 4) it was 5.36; in series [4] (Table 4), 7.68.
Take `O=c1[nH]c(-c2ccc(O)c(Br)c2)nc2c(Cl)cc(Cl)cc12` [JKT.805A]: the solubility in series [1] (setting [5]) was determined as 4.2 µM (≈ 1.62 µg/mL). The pIC50 is 5.54 in series [2] (Table 8, quinazolinones); < 5.00 in series [3] (Table 8); 5.55 in series [4] (Table 8, quinazolinones).
The corresponding values for `O=c1[nH]c(-c2ccc(O)c(Cl)c2)nc2c(Cl)cc(Cl)cc12` [JKT.806A] are 17 µM (≈ 5.81 µg/mL), < 5.30, < 5.00 and < 5.30.
For `O=c1[nH]c(-c2cc(Cl)c(O)c(Cl)c2)nc2c(Cl)cc(Cl)cc12` [JKT.807A], in series [1] (setting [5]), the solubility came out at 126 µM (≈ 47.3 µg/mL). Moreover, the pIC50 is 6.04 in series [2] (Table 8, quinazolinones); < 5.00 in series [3] (Table 8); < 5.30 in series [4] (Table 8, quinazolinones).
For `O=c1[nH]c(-c2cc(F)c(O)c(F)c2)nc2c(Cl)cc(Cl)cc12` [JKT.808A], the solubility in series [1] (setting [5]) was 189 µM (≈ 64.7 µg/mL). The pIC50 in series [2] (Table 8, quinazolinones) is 5.53; in series [3] (Table 8), < 5.00; in series [4] (Table 8, quinazolinones) it was 5.79.
For `O=c1[nH]c(-c2ccc(O)c(C(F)(F)F)c2)nc2c(Cl)cc(Cl)cc12` [JKT.809A], in series [1] (setting [5]), the solubility is < 0.01 µM. Moreover, the pIC50 is 7.09 in series [2] (Table 8, quinazolinones); < 5.00 in series [3] (Table 8); < 5.30 in series [4] (Table 8, quinazolinones).
The like results for `COc1cc(-c2nc3c(Cl)cc(Cl)cc3c(=O)[nH]2)ccc1O` [JKT.810A] were, in that order, < 0.01 µM, < 5.30, < 5.00 and < 5.30.
With `COc1c(Br)cc2c(c1Br)O/C(=C\c1ccc(O)c(I)c1)C2=O` [JKT.813A], in series [1] (Table 11), the solubility was < 0.01 µM. For the same compound, the pIC50 in series [2] (Table 11, aurones) is 6.87; in series [3] (Table 11), 5.96; in series [4] (Table 11, aurones), 6.71.
Turning to `COc1ccc2c(c1Br)O/C(=C\c1ccc(O)c(I)c1)C2=O` [JKT.814A], in series [1] (Table 11), the solubility is < 0.01 µM. The pIC50 was 6.88 in series [2] (Table 11, aurones); 5.37 in series [3] (Table 11); 6.91 in series [4] (Table 11, aurones).
Take `COc1ccc2c(c1Br)O/C(=C\c1ccc(O)c(Br)c1)C2=O` [JKT.815A]: the solubility in series [1] (Table 11) was < 0.01 µM. Further, the pIC50 in series [2] (Table 11, aurones) is 7.33; in series [3] (Table 11), 5.34; in series [4] (Table 11, aurones), 7.59.
As for `COc1ccc2c(c1Br)O/C(=C\c1ccc(O)cc1Br)C2=O` [JKT.816A], the solubility in series [1] (Table 11) is < 0.01 µM. Besides, the pIC50 in series [2] (Table 11, aurones) was 6.92; in series [3] (Table 11), < 5.00; in series [4] (Table 11, aurones), 5.82.
Turning to `COc1ccc2c(c1Br)O/C(=C\c1ccc(O)c(Cl)c1)C2=O` [JKT.817A], the solubility in series [1] (Table 11) was < 0.01 µM. In addition, the pIC50 in series [2] (Table 11, aurones) was 7.23; in series [3] (Table 11), 5.19; in series [4] (Table 11, aurones), 7.28.
The like results for `COc1ccc2c(c1Br)O/C(=C\c1ccc(O)cc1Cl)C2=O` [JKT.818A] were, in that order, < 0.01 µM, < 5.30, < 5.00 and < 5.30.
The corresponding values for `COc1ccc2c(c1Br)O/C(=C\c1ccc(O)c(C(F)(F)F)c1)C2=O` [JKT.819A] are 17 µM (≈ 7.06 µg/mL), 6.27, 5.23 and 6.18.
